Source: paper PMC12670396, “Crizotinib- or Ceritinib-Conjugated Platinum(IV) Prodrugs As Potent Multiaction Agents Inducing Antiproliferative Effects in 2D and 3D Cancer Cell Models” (Journal of Medicinal Chemistry, 2025)

Experiments:
ALK = biological target: T1, ALK (Homo sapiens, UniProt Q9HC35+Q9UM73); assay: Western blot of ALK phosphorylation state; assay type: cell-based; details: NCI-H2228 lysates, IC50 concentrations, 24 h
T1 construct: Western blot detection of the ALK phosphorylation state in lysates of NCI-H2228 cells exposed to the tested compounds; endogenous in cells; host or cells: NCI-H2228
T1 sequence (Q9HC35+Q9UM73 fused): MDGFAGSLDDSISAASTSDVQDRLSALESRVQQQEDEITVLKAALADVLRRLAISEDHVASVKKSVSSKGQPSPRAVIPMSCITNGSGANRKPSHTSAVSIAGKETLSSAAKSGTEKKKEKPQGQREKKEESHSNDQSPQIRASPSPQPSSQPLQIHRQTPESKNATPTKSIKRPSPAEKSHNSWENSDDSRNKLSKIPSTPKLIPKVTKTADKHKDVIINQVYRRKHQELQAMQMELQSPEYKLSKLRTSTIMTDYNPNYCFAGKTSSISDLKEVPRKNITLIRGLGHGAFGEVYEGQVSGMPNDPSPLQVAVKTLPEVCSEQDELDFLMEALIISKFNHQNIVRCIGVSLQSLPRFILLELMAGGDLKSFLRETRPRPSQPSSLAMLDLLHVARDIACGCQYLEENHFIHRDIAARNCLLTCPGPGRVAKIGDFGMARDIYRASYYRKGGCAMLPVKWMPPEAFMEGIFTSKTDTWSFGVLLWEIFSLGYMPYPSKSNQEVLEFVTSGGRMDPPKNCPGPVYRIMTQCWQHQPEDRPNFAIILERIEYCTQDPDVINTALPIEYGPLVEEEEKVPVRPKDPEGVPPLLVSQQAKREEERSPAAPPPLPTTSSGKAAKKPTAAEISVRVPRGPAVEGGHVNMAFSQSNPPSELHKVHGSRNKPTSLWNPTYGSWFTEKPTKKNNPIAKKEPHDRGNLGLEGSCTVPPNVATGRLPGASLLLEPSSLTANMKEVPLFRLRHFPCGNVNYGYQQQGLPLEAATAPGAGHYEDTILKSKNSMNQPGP
Experimental: (§1) Whereas the signals of pALK and pMET are decreased in the presence of the tested compounds, the overall amount of ALK and MET is not markedly changed.
(§2) NCI-H2228 cells were seeded in 6-well plates at a density of 2 × 10^5 cells/well and incubated overnight. […] The cells were then harvested and lysed using RIPA lysis buffer supplemented with protease and phosphatase inhibitors as recommended by the manufacturer. Protein extracts were resolved with SDS-PAGE, transferred to a PVDF membrane, and the respective proteins were detected with specific antibodies (anti-phosphoALK, anti-ALK, anti-phosphoMET, anti-MET, and anti-GADPH) and HRP-conjugated secondary antibodies. The signals were obtained with SignalFire ECL Reagent and recorded with an Amersham680 reader.

[1] = tested on: normal (noncancerous) cells MRC-5, IMR-90, hTERT-HPNE, MCF10A; assay: MTT, noncancerous cell lines (average, selectivity index); assay type: cell-based, human; details: for SI, selectivity index: IC50(normal cells)/averageIC50(cancer cells); for IC50: average over MRC-5, IMR-90, hTERT-HPNE, MCF10A, read-out: av norm (average IC50 in noncancerous cells)
Experimental: Growth inhibition activity in cancer cell lines was compared with the activity to inhibit the proliferation of normal (noncancerous) cells, namely MRC-5, IMR-90, hTERT-HPNE, and MCF10A cells. Selectivity indexes (SI) were calculated as (IC50 in noncancerous cells)/(average IC50 in cancer cells). […] We further assessed the toxicity of several of the compounds in hepatocyte-like cells (HLC) generated from human pluripotent cells. […]

MET = biological target: T2, MET (Homo sapiens, UniProt P08581); assay: Western blot of MET phosphorylation state; assay type: cell-based; details: NCI-H2228 lysates, IC50 concentrations, 24 h
T2 construct: Western blot analysis of the phosphorylation state of ALK and MET; endogenous in cells; host or cells: NCI-H2228
T2 sequence (P08581 25-1390): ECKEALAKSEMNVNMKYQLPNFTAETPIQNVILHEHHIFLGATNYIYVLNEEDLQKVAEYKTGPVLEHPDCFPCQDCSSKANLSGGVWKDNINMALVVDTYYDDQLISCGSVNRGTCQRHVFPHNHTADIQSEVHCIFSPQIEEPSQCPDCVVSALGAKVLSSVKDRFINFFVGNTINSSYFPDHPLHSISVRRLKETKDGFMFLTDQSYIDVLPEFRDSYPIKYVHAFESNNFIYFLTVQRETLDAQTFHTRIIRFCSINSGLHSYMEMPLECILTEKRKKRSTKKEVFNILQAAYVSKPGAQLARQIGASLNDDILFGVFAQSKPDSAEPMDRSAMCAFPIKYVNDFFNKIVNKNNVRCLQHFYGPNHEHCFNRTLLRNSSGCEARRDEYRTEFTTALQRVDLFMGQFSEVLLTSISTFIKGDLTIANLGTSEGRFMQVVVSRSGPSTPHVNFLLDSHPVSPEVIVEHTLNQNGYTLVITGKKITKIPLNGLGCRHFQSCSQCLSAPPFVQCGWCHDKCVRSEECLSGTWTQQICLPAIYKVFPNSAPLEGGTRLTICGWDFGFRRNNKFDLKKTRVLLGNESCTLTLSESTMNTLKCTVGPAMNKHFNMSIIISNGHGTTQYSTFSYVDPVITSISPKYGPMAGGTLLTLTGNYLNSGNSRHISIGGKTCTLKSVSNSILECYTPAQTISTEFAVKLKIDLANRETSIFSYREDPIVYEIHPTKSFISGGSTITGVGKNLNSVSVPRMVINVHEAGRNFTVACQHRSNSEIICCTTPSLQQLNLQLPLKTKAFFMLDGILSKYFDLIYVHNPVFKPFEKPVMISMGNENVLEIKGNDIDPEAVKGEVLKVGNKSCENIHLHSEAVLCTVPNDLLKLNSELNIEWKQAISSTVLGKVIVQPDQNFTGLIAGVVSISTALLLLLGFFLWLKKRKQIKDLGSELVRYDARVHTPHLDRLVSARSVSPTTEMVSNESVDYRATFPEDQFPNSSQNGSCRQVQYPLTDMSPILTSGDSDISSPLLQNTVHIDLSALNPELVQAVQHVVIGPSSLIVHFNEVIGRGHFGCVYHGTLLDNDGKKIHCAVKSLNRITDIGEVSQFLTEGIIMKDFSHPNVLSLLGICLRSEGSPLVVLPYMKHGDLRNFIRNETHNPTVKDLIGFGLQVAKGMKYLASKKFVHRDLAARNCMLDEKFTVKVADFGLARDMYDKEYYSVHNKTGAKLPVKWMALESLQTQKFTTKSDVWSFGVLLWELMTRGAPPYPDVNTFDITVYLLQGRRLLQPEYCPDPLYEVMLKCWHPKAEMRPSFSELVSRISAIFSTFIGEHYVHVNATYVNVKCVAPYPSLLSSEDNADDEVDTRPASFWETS
Experimental: as §1, §2

CT26 or NCI-H2228 cells = assay: Release of ATP (CLSII bioluminescence assay); assay type: cell-based; details: IC50 concentrations, 20 h
Experimental: ATP release was analyzed using the CLSII bioluminescence assay kit (Roche) after treatment of CT26 or NCI-H2228 cells with the tested compounds at concentrations corresponding to their respective IC50 values (Figure A).
CT26 and NCI-H2228 cells were seeded in 48-well plates at a density of 5 × 10^4 cells/well and grown overnight. […] Then 50 μL of supernatant from the wells was transferred into a 96-well white plate (Corning) and processed using an ATP bioluminescence assay kit CLSII following the manufacturer’s instructions. Luminescence was measured with a SPARK multimode reader (TECAN).

CT26 cells = assay: Phagocytosis of treated CT26 cells by J774.A1 macrophages; assay type: cell-based, murine; details: CT26 treated at IC50 for 24 h, cocultivated 4 h, J774.A1:CT26 1:2
Experimental: Then, the cells in the samples were stained with CellTracker (red CMTPX; Thermo Fisher Scientific). At the same time, J774.A1 macrophages were stained with CellTracker (green CMFDA; ThermoFisher Scientific). […] Following the coincubation, the cells were harvested and analyzed with flow cytometry (BD FACS Verse). Total cell count was normalized to 3 × 10^4 macrophages. The data were analyzed with FCS Express 7 (DeNovo software; Glendale, CA).

NCI-H2228 cells [2] = assay: Cell death mode (Annexin V/PI, flow cytometry); assay type: cell-based, human; details: NCI-H2228, 3 × IC50, 48 h
From the text: Flow cytometric analysis was used to assess the mode of cell death induced in NCI-H2228 cells by the tested complexes. Annexin V staining was employed to recognize the externalization of phosphatidyl serine, a feature considered an apoptotic marker. Propidium iodide (PI) was used to stain cells with compromised cell membranes (a sign of necrosis). Staurosporine was included in the experiment as a positive control for apoptosis. […] Apoptosis appears to be the leading mode of cell death in the entire group of tested compounds, with a varying distribution of cell populations between early and late apoptosis.
Staurosporine (4 μM; 2 h) was used as a positive control of apoptosis. The cells were then harvested with trypsin and stained with Annexin V-Pacific Blue conjugate (1:20 dilution) and PI (10 μg mL^–1) for 15 min. The samples were analyzed with flow cytometry (FACS Verse), 3 × 10^4 cells were analyzed following the exclusion of cell aggregates, and the data was analyzed with FCS Express 7 (DeNovo software, Glendale, CA).

[3] = Reduction by L-ascorbic acid in phosphate buffer (RP-HPLC); assay type: physicochemical
Experimental: The reduction of Pt(IV) complexes was performed by reacting with 10 equiv of L-ascorbic acid in 10% DMSO in 100 mM phosphate buffer (pH 7.4) at 37 °C, and was monitored by reverse-phase analytical HPLC. The half-lives for the reduction were calculated from the decreasing peak areas as a function of time.
The reduction of the Pt(IV) complexes was performed in the presence of 10 equiv of L-ascorbic acid (AA) in phosphate buffer (100 mM, pH 7.4) at 37 °C using reverse-phase analytical HPLC. […] The platinum complexes were dissolved in 10% DMSO with 50% MeOH and added to 100 mM phosphate buffer (pH 7.4). […] The samples were injected and stored at 37 °C throughout the experiment.

NCI-H2228 cells [4] = assay: Cell cycle distribution (PI, flow cytometry); assay type: cell-based, human; details: NCI-H2228, 2 × IC50, 48 h
Experimental: The alterations in cell cycle profiles caused by the tested agents in NCI-H2228 cells may offer insight into their anticancer mechanism. To examine these changes, we utilized flow cytometry to analyze the cells treated with the representative agents (Figure and Figure S40).
It appears that the G2/M arrest is a common phenomenon in the crizotinib-containing group of NCI-H2228 cells under the conditions used.
Following 48 h of incubation, the cells were harvested and fixed with 70% ethanol. The next day, the cells were washed with PBS (2×) and stained with propidium iodide (PI) (50 μg mL^–1 with 100 μg mL^–1 RNase A) in Vindel’s solution (10 mM Tris-Cl (pH = 8.0), 10 mM NaCl, 0.1% Triton X-100) for 30 min at 37 °C. Cell cycle distribution was analyzed using flow cytometry (FACS Verse), 3 × 10^4 cells were analyzed following the exclusion of cell aggregates, and the data was analyzed with FCS Express 7 (DeNovo software, Glendale, CA). The results are expressed as MEAN from two experiments.

| SMILES | phosphorylation of ALK (ALK) | SI, selectivity index [1] | IC50 [1] | phosphorylation of MET (MET) | ATP released to the medium relative to nontreated cells (CT26 or NCI-H2228 cells) | double-stained (phagocytotic) population (CT26 cells) | mode of cell death (NCI-H2228 cells [2]) | reduction half-life (t 1/2) ([3]; 10 equiv L-ascorbic acid, 10% DMSO in 100 mM phosphate buffer pH 7.4, 37 °C) | cell cycle arrest (NCI-H2228 cells [4]) | solubility in phosphate buffer ([3]; 100 mM phosphate buffer pH 7.4) |
| --- | --- | --- | --- | --- | --- | --- | --- | --- | --- | --- |
| N.N.[Cl][Pt][Cl] [cisPt, cisplatin, reference compound] | no visible effect | 1.1 | 9900 nM | no visible effect | did not induce a significant release of ATP |  |  |  |  |  |
| CC(Oc1cc(-c2cnn(C3CCN(C(=O)[O][Pt]([Cl])([Cl])[O]C(=O)CCCc4ccccc4)CC3)c2)cnc1N)c1c(Cl)ccc(F)c1Cl.N.N (stereo not shown) [compound 3, ctc-[Pt(NH3)2(crizotinib)(PhB)Cl2]] |  |  | 2200 nM |  |  | significantly increased | apoptotic phenotype | 7.7 h | induced arrest in the G2/M phase |  |
| Cc1cc(Nc2ncc(Cl)c(Nc3ccccc3S(=O)(=O)C(C)C)n2)c(OC(C)C)cc1C1CCN(C(=O)[O][Pt]([Cl])([Cl])[O]C(=O)CCCc2ccccc2)CC1.N.N [compound 7, ctc-[Pt(NH3)2(ceritinib)(PhB)Cl2]] | inhibit the phosphorylation | 5.9 | 1300 nM | inhibit the phosphorylation | 2.7 fold | significantly increased | apoptotic phenotype |  | majority of the population in cells treated with 7 was in the S phase | poor solubility |
